# Measurements reported in patent US10227345B2, “Compounds and methods for inhibiting fascin” (Cornell University, priority 2014, dated 2019).
# Target: T1, human fascin 1 (Homo sapiens, UniProt Q16658)
# T1 construct: GST (N, cleaved yes); made in house; host or cells: Escherichia coli BL21/DE3 (pGEX4T-fascin 1 plasmid)
# Experiment: Fascin inhibition (actin bundling) assay, image-based
# Assay type: biochemical
# Details: in the presence of 50 μm of the compound relative to bundle activity when the compound was not present; read-out: Inhibition (percentage reduction of bundle activity)
# Description: Recombinant human fascin 1 was expressed as a GST fusion protein in BL21 Escherichia coli. One liter of 2YT medium with ampicillin was inoculated overnight with 3 mL of BL21/DE3 culture transformed with pGEX4T-fascin 1 plasmid and grown at 37° C. until attenuance at 600 nm (D600) reached about 0.8. The culture was then transferred to 18° C. and induced by the addition of 0.1 mM isopropyl β-d-thiogalactoside (IPTG) for 12 h. Bacteria were harvested by centrifugation at 5,000 r.p.m. for 10 min. The pellets were suspended in 30 mL of PBS supplemented with 0.2 mM PMSF, 1 mM DTT, 1% (v/v) Triton X-100 and 1 mM EDTA. After sonication, the suspension was centrifuged at 15,000 r.p.m. for 30 min to remove the cell debris. The supernatant was then incubated for 2 h with 4 mL of glutathione beads (Sigma) at 4° C. After extensive washing with PBS, the beads were resuspended in 10 mL of thrombin cleavage buffer (20 mM Tris-HCl pH 8.0, 150 mM NaCl, 2 mM CaCl2, 1 mM DTT). Fascin was released from the beads by incubation overnight with 40-100 U of thrombin at 4° C. After centrifugation, 0.2 mM PMSF was added to the supernatant to inactivate the remnant thrombin activity. The fascin protein was further concentrated with a Centricon® (Boca Raton, Fla.) filter to about 50 mg/mL.
# Representative compounds described herein were tested for fascin inhibition activity. Purified fascin protein (15 μL of 0.5 μM) in buffer (100 mM KCl, 20 mM Tris/HCl, pH 7.5, 2 mM MgCl2) was added into each well of a clear 384-well flat-bottom plate (Corning) using Thermo Multidrop Combi (Fisher). Compound solutions (5 mM stock, 180 nL) were pin transferred from stock 384-well plates into the 384-well assay plates and incubated for 30 min. Then 15 μL of 0.5 μM polymerized actin (in 100 mM KCl, 20 mM Tris/HCl, pH 7.5, 2 mM MgCl2, 1 mM DTT, 1 mM ATP) (Cytoskeleton Inc.) was added, resulting in 30 μM final concentration for chemical compounds. […] Mixed solution (25 μL) was then transferred to one well in a black 384-well plate coated with poly-D-lysine, and stained actin bundles or F-actin would stick onto the poly-D-lysine plates. After the plates were thoroughly washed with 1×PBS for 3 times, the plate was imaged using an ImageXpress Micro High Content Screening System (Molecular devices). The images were processed and analyzed using MetaMorph software. The raw image data for each well was background-corrected by subtraction of the median intensities across all wells on the plate. The background-corrected data was used to compute the bundle length for each well. The negative control wells were employed for quality control: multiple DMSO-only control wells (16 wells/plate) were present on each assay plate.
row,SMILES,inhibition at 50 µM
1,"O=C(Nc1nn(Cc2ccc(C(F)(F)F)cc2)c2ccccc12)c1ccsn1 [Compound 39, N-(1-(4-(trifluoromethyl)benzyl)-1H-indazol-3-yl)isothiazole-3-carboxamide]",50%
2,"O=C(Nc1nn(Cc2ccc(C(F)(F)F)cc2)c2ccccc12)c1cnco1 [Compound 40, N-(1-(4-(trifluoromethyl)benzyl)-1H-indazol-3-yl)oxazole-5-carboxamide]",100%
3,"O=C(Nc1nn(Cc2ccc(C(F)(F)F)cc2)c2ccccc12)c1sccc1Cl [Compound 41, 3-chloro-N-(1-(4-(trifluoromethyl)benzyl)-1H-indazol-3-yl)thiophene-2-carboxamide]",< 10%
4,"O=C(Nc1nn(Cc2ccc(C(F)(F)F)cc2)c2ccccc12)c1cscc1Br [Compound 42, 4-bromo-N-(1-(4-(trifluoromethyl)benzyl)-1H-indazol-3-yl)thiophene-3-carboxamide]",< 10%
5,"O=C(Nc1nn(Cc2ccc(C(F)(F)F)cc2)c2ccccc12)c1ccccc1Br [Compound 46, 2-bromo-N-(1-(4-(trifluoromethyl)benzyl)-1H-indazol-3-yl)benzamide]",< 10%
6,"O=C(Nc1nn(Cc2ccc(C(F)(F)F)cc2)c2ccccc12)c1ccccc1OC(F)F [Compound 47, 2-(difluoromethoxy)-N-(1-(4-(trifluoromethyl)benzyl)-1H-indazol-3-yl)benzamide]",< 10%
7,"O=C(Nc1nn(Cc2cccc(C(F)(F)F)c2)c2ccccc12)c1ccoc1 [Compound 48, N-(1-(3-(trifluoromethyl)benzyl)-1H-indazol-3-yl)furan-3-carboxamide]",< 10%
8,"O=C(Nc1nn(Cc2ccc(C(F)(F)F)cc2)c2ccccc12)c1ccccc1C(F)(F)F [Compound 50, 2-(trifluoromethyl)-N-(1-(4-(trifluoromethyl)benzyl)-1H-indazol-3-yl)benzamide]",< 10%
9,"COc1cscc1C(=O)Nc1nn(Cc2ccc(C(F)(F)F)cc2)c2ccccc12 [Compound 51, 4-methoxy-N-(1-(4-(trifluoromethyl)benzyl)-1H-indazol-3-yl)thiophene-3-carboxamide]",< 10%
10,"O=C(Nc1nn(Cc2ccc(C(F)(F)F)cc2)c2ccccc12)c1ccccc1OC(F)(F)F [Compound 52, 2-(trifluoromethoxy)-N-(1-(4-(trifluoromethyl)benzyl)-1H-indazol-3-yl)benzamide]",< 10%
11,"O=C(Nc1nn(Cc2ccc(C(F)(F)F)cc2)c2ccccc12)c1cnccn1 [Compound 53, N-(1-(4-(trifluoromethyl)benzyl)-1H-indazol-3-yl)pyrazine-2-carboxamide]",< 10%
12,"O=C(Nc1nn(Cc2ccc(C(F)(F)F)cc2)c2ccccc12)c1cccnc1 [Compound 54, N-(1-(4-(trifluoromethyl)benzyl)-1H-indazol-3-yl)nicotinamide]",< 10%
13,"O=C(Nc1nn(Cc2ccc(C(F)(F)F)cc2)c2ccccc12)c1ccccn1 [Compound 55, N-(1-(4-(trifluoromethyl)benzyl)-1H-indazol-3-yl)picolinamide]",< 10%
14,"O=C(Nc1nn(Cc2ccc(C(F)(F)F)cc2)c2ccccc12)c1cncnc1 [Compound 56, N-(1-(4-(trifluoromethyl)benzyl)-1H-indazol-3-yl)pyrimidine-5-carboxamide]",90%
15,"O=C(Nc1nn(Cc2ccccc2C(F)(F)F)c2ccccc12)c1ccoc1 [Compound 57, N-(1-(2-(trifluoromethyl)benzyl)-1H-indazol-3-yl)furan-3-carboxamide]",< 10%
16,"O=C(Nc1nn(Cc2ccccc2)c2ccccc12)c1ccoc1 [Compound 58, N-(1-benzyl-1H-indazol-3-yl)furan-3-carboxamide]",< 10%
17,"Nc1nn(Cc2ccc(C(F)(F)F)cc2)c2ccccc12 [Compound 59, 1-(4-(trifluoromethyl)benzyl)-1H-indazol-3-amine]",< 10%
18,"O=C(Nc1n[nH]c2ccccc12)c1ccoc1 [Compound 62, N-(1H-indazol-3-yl)furan-3 carboxamide]",< 10%

# More lines, now with the values ahead:
row,inhibition at 50 µM,SMILES
1,< 10%,"Nc1nn(Cc2ccc(Cl)cc2)c2ccccc12 [Compound 63, 1-(4-chlorobenzyl)-1H-indazol-3-amine]"
2,50%,"O=C(Nc1nn(Cc2ccc(Cl)cc2)c2ccccc12)c1ccoc1 [Compound 64, N-(1-(4-chlorobenzyl)-1H-indazol-3-yl)furan-3-carboxamide]"
3,50%,"Cc1occc1C(=O)Nc1nn(Cc2ccc(Cl)cc2)c2ccccc12 [Compound 67, N-(1-(4-chlorobenzyl)-1H-indazol-3-yl)-2-methylfuran-3-carboxamide]"
4,50%,"Cc1ncsc1C(=O)Nc1nn(Cc2ccc(Cl)cc2)c2ccccc12 [Compound 68, N-(1-(4-chlorobenzyl)-1H-indazol-3-yl)-4-methylthiazole-5-carboxamide]"
5,50%,"O=C(Nc1nn(Cc2ccc(Cl)cc2)c2ccccc12)c1cccnn1 [Compound 69, N-(1-(4-chlorobenzyl)-1H-indazol-3-yl)pyridazine-3-carboxamide]"
6,< 10%,"Nc1nn(Cc2ccc(F)cc2)c2ccccc12 [Compound 70, 1-(4-fluorobenzyl)-1H-indazol-3-amine]"
7,< 10%,"O=C(Nc1nn(Cc2ccc(F)cc2)c2ccccc12)c1ccoc1 [Compound 71, N-(1-(4-fluorobenzyl)-1H-indazol-3-yl)furan-3-carboxamide]"
8,< 10%,"Cc1nocc1C(=O)Nc1nn(Cc2ccc(F)cc2)c2ccccc12 [Compound 72, N-(1-(4-fluorobenzyl)-1H-indazol-3-yl)-3-methylisoxazole-4-carboxamide]"
9,50%,"O=C(Nc1nn(Cc2ccc(F)cc2)c2ccccc12)c1ccno1 [Compound 73, N-(1-(4-fluorobenzyl)-1H-indazol-3-yl)isoxazole-5-carboxamide]"
10,< 10%,"Cc1occc1C(=O)Nc1nn(Cc2ccc(F)cc2)c2ccccc12 [Compound 74, N-(1-(4-fluorobenzyl)-1H-indazol-3-yl)-2-methylfuran-3-carboxamide]"
11,< 10%,"Cc1ncsc1C(=O)Nc1nn(Cc2ccc(F)cc2)c2ccccc12 [Compound 75, N-(1-(4-fluorobenzyl)-1H-indazol-3-yl)-4-methylthiazole-5-carboxamide]"
12,< 10%,"O=C(Nc1nn(Cc2ccc(F)cc2)c2ccccc12)c1cccnn1 [Compound 76, N-(1-(4-fluorobenzyl)-1H-indazol-3-yl)pyridazine-3-carboxamide]"
13,< 10%,"Cc1ccc(Cn2nc(N)c3ccccc32)cc1 [Compound 77, 1-(4-methylbenzyl)-1H-indazol-3-amine]"
14,< 10%,"Cc1ccc(Cn2nc(NC(=O)c3ccoc3)c3ccccc32)cc1 [Compound 78, N-(1-(4-methylbenzyl)-1H-indazol-3-yl)furan-3-carboxamide]"
15,< 10%,"Cc1ccc(Cn2nc(NC(=O)c3conc3C)c3ccccc32)cc1 [Compound 79, 3-methyl-N-(1-(4-methylbenzyl)-1H-indazol-3-yl)isoxazole-4-carboxamide]"
16,50%,"Cc1ccc(Cn2nc(NC(=O)c3ccno3)c3ccccc32)cc1 [Compound 80, N-(1-(4-methylbenzyl)-1H-indazol-3-yl)isoxazole-5-carboxamide]"
17,< 10%,"Cc1ccc(Cn2nc(NC(=O)c3ccoc3C)c3ccccc32)cc1 [Compound 81, 2-methyl-N-(1-(4-methylbenzyl)-1H-indazol-3-yl)furan-3-carboxamide]"
18,< 10%,"Cc1ccc(Cn2nc(NC(=O)c3scnc3C)c3ccccc32)cc1 [Compound 82, 4-methyl-N-(1-(4-methylbenzyl)-1H-indazol-3-yl)thiazole-5-carboxamide]"
19,< 10%,"Cc1ccc(Cn2nc(NC(=O)c3cccnn3)c3ccccc32)cc1 [Compound 83, N-(1-(4-methylbenzyl)-1H-indazol-3-yl)pyridazine-3-carboxamide]"
20,< 10%,"N#Cc1ccc(Cn2nc(N)c3ccccc32)cc1 [Compound 84, 4-((3-amino-1H-indazol-1-yl)methyl)benzonitrile]"
